Test system: patients with Alzheimer's disease
Test: Phase 3 study AB09004: change from baseline in ADCS-ADL score
Type: in vivo, human
Parameters: key to δLSM (ADCS-ADL): LSM difference in ADCS-ADL change; positive = improvement
Conditions: 4.5 mg/kg/day; for ΔLSM (ADCS-ADL): vs placebo, week 24; for δLSM (ADCS-ADL): week 24 from baseline
Description: An international, multicenter, randomized, double-blind, placebo-controlled phase 3 study was conducted with the objective to evaluate oral masitinib at a dose of 4.5 mg/kg/day as a treatment for Alzheimer's disease.
Eligible patients, aged at least 50 years, were diagnosed with dementia of Alzheimer's type according to Diagnostic and Statistical Manual of Mental Disorders (DSM)-IV criteria, and probable Alzheimer's disease according to NINCDS-ADRDA (National Institute of Neurological and Communicative Diseases and Stroke/Alzheimer's Disease and Related Disorders Association) criteria. […] Patients with any other cause of dementia not due to Alzheimer's disease were ineligible for the study.
Eligible patients were treated during 24 weeks with masitinib at a dose of 4.5 mg/kg/day (mg per kilo body weight per day) or with placebo. Treatment was administered as add-on therapy in patients who had been treated for a minimum of 6 months with a stable dose of cholinesterase inhibitors (donepezil, rivastigmine or galantamine) and/or memantine, with no changes foreseen in therapy throughout the study.
Primary analysis was based on the co-primary endpoints of: • Change from baseline in Alzheimer's Disease Cooperative Study Activities of Daily Living (ADCS-ADL) score. The ADCS-ADL assesses the competence of patients with Alzheimer's disease in basic and instrumental activities of daily living (ADLs). • Change from baseline in Alzheimer's Disease Assessment Scale-Cognitive Subscale (ADAS-Cog). The ADAS-Cog assesses cognition and memory.
Treatment effect (masitinib versus placebo) was assessed based on absolute change from baseline to week 24 by using an analysis of covariance model (ANCOVA linear model) with the following factors: treatment, baseline value, and stratification criteria of baseline MMSE score, age, ADCS-ADL total score, and ADAS-Cog total score.
For ADCS-ADL, the global score (i.e., the sum of 23 items rated by the caregiver) was used with a range from 0 to 78, wherein 78 implies full functioning with no impairment. Thus, a higher score signifies greater functional ability, while a lower score signifies greater (worse) impairment. Results are expressed as a least-squares means difference (δLSM) of absolute change in ADCS-ADL score from baseline; that is to say, the change over time in the ADCS-ADL score, or in other words the difference between the ADCS-ADL score at baseline (before treatment initiation) and the ADCS-ADL score after treatment with masitinib or with placebo. An increase in ADCS-ADL score with respect to baseline (i.e., a positive δLSM) indicates an improvement in the patient and therefore disease stability, whereas a decrease in ADCS-ADL score with respect to baseline (i.e., negative δLSM) indicates a worsening in the patient and therefore disease progression. Treatment-effect is reported as the difference between treatment-arms (ΔLSM) (calculated as δLSM[masitinib] minus δLSM[placebo]), with a positive value indicating a beneficial effect of treatment with masitinib as compared to treatment with placebo. In a scenario where both treatment-arms show worsening in activities of daily living (i.e., a negative δLSM), then a positive ΔLSM indicates a beneficial treatment effect for masitinib, i.e., the rate of decline in masitinib treated patients is slower than that of patients from the placebo-arm.
The comparison was carried out using the following information: • δLSM: least-squares means difference of absolute change in endpoint score at week 24 from baseline, either according to ADAS-Cog assessment or to ADCS-ADL assessment. • ΔLSM: Difference between treatment-arms (treatment-effect) calculated as δLSM[masitinib] minus δLSM[placebo]. • Δsub/Δoverall: Ratio of subpopulation's placebo-controlled treatment-effect (ΔLSM at W24 for masitinib 4.5 mg/kg/d parallel arm) versus overall study population's placebo-controlled treatment-effect (ΔLSM at W24 for masitinib 4.5 mg/kg/d parallel arm). […]

[1] = Baseline ADCS-ADL >47 (Table 11)

## Cc1ccc(NC(=O)c2ccc(CN3CCN(C)CC3)cc2)cc1Nc1nc(-c2cccnc2)cs1 [masitinib, 4-(4-methylpiperazin-1-ylmethyl)-N-[4-methyl-3-(4-pyridin-3ylthiazol-2-ylamino)phenyl]benzamide]
Baseline ADAS-Cog >35
  ΔLSM (ADCS-ADL): −0.788 points
Baseline ADCS-ADL <32
  ΔLSM (ADCS-ADL): −0.9123 points
  δLSM (ADCS-ADL): 0.8656
Baseline ADCS-ADL <35
  ΔLSM (ADCS-ADL): 0.2942 points
  δLSM (ADCS-ADL): 0.9816
Baseline ADCS-ADL <38
  ΔLSM (ADCS-ADL): −0.2109 points
  δLSM (ADCS-ADL): 1.9901
Baseline ADCS-ADL <41
  ΔLSM (ADCS-ADL): 1.0592 points
  δLSM (ADCS-ADL): 3.2426
Baseline ADCS-ADL <47
  ΔLSM (ADCS-ADL): 0.9542 points
  δLSM (ADCS-ADL): 2.0776
Baseline ADCS-ADL <50
  ΔLSM (ADCS-ADL): +0.3062 points
  δLSM (ADCS-ADL): 1.5300
Baseline ADCS-ADL <50, listed as M4.5, 4.5 mg/kg/day
  ΔLSM (ADCS-ADL): 0.3062 points
Baseline ADCS-ADL >39
  ΔLSM (ADCS-ADL): +2.0733 points
  δLSM (ADCS-ADL): 0.6655
Baseline ADCS-ADL >39, listed as M4.5, 4.5 mg/kg/day
  ΔLSM (ADCS-ADL): 2.0733 points
[1]
  ΔLSM (ADCS-ADL): 2.1676 points
  δLSM (ADCS-ADL): 1.0869
Baseline ADCS-ADL >55
  ΔLSM (ADCS-ADL): +3.1871 points
  δLSM (ADCS-ADL): 0.8306
Baseline ADCS-ADL >55, listed as M4.5, 4.5 mg/kg/day
  ΔLSM (ADCS-ADL): 3.1871 points
Baseline ADCS-ADL ≤39
  ΔLSM (ADCS-ADL): +0.7132 points
  δLSM (ADCS-ADL): 2.8513
Baseline ADCS-ADL ≤39, listed as M4.5, 4.5 mg/kg/day
  ΔLSM (ADCS-ADL): 0.7132 points
Baseline ADCS-ADL ≤55
  ΔLSM (ADCS-ADL): +0.4577 points
  δLSM (ADCS-ADL): 1.3484
Baseline ADCS-ADL ≤55, listed as M4.5, 4.5 mg/kg/day
  ΔLSM (ADCS-ADL): 0.4577 points
Baseline ADCS-ADL ≥32
  ΔLSM (ADCS-ADL): 1.9799 points
  δLSM (ADCS-ADL): 0.9536
Baseline ADCS-ADL ≥35
  ΔLSM (ADCS-ADL): 2.0209 points
  δLSM (ADCS-ADL): 0.9909
Baseline ADCS-ADL ≥38
  ΔLSM (ADCS-ADL): +2.3285 points
  δLSM (ADCS-ADL): 1.0071
Baseline ADCS-ADL ≥38, listed as M4.5, 4.5 mg/kg/day
  ΔLSM (ADCS-ADL): 2.3285 points
Baseline ADCS-ADL ≥41
  ΔLSM (ADCS-ADL): 2.0192 points
  δLSM (ADCS-ADL): 0.8077
Baseline ADCS-ADL ≥47
  ΔLSM (ADCS-ADL): 2.1676 points
  δLSM (ADCS-ADL): 1.0869
Baseline ADCS-ADL ≥50
  ΔLSM (ADCS-ADL): +3.2315 points
  δLSM (ADCS-ADL): 0.7638
Baseline ADCS-ADL ≥50, listed as M4.5, 4.5 mg/kg/day
  ΔLSM (ADCS-ADL): 3.2315 points
MMSE <13
  ΔLSM (ADCS-ADL): −9.2849 points
  δLSM (ADCS-ADL): −10.9758
MMSE <14
  ΔLSM (ADCS-ADL): −3.5751 points
  δLSM (ADCS-ADL): −4.6507
MMSE <15
  ΔLSM (ADCS-ADL): −0.5657 points
  δLSM (ADCS-ADL): −3.1413
MMSE <16
  ΔLSM (ADCS-ADL): −0.6926 points
  δLSM (ADCS-ADL): −2.3199
MMSE <17
  ΔLSM (ADCS-ADL): 0.5605 points
  δLSM (ADCS-ADL): −1.0314
MMSE [12-20]
  ΔLSM (ADCS-ADL): +1.3770 points
MMSE [12-20], listed as M4.5, 4.5 mg/kg/day
  ΔLSM (ADCS-ADL): 1.3770 points
